According to patent publication US20160220602A1, “USE OF CHINESE MEDICINE PREPARATION IN PREPARING DRUG FOR PREVENTING AND/OR TREATING CROHN'S DISEASE” (TASLY PHARMACEUTICAL GROUP CO., LTD., priority 2013, published 2016):

Assays:
[1] = tested on: zebra fish Crohn's disease model established with TNBS; assay: Efficacy in zebra fish Crohn's disease model (intestinal area, diameter, therapeutic ratio); assay type: in vivo; conditions: 10 μM in fish farm water, 48 hours
Protocol: Meanwhile, the positive control group, blank control group, Crohn's disease model group and excipient control group were set in the research. In the positive control group, the prednisolone was finally at concentration of 10 μM in fish farm water. The enema excipient disclosed in Chinese patent (CN 1192787 C) was used in the excipient control group, including adding PEG-400 solutions containing tragacanth and potassium sorbate into the fish farm water in the volume ratio of 0.3%. Wherein, the PEG-400 solution was prepared following method: adding 1.5 g of tragacanth and 2 g of potassium sorbate (particle size of 150 μm) into 28ml PEG.
30 zebra fish were randomly given to each group. […] The image analysis software was used to analyze the pictures. Meanwhile, intestine mucosal thickness, intestinal diameter and intestinal area were observed carefully under the microscope and the intestinal diameter and intestinal area analyzed quantitatively. Therapeutic ratio of tested drug in zebra fish Crohn's disease was calculated in accordance with the intestinal area in each group. The calculation formula was present as follows: […]
Variance analysis was used for comparison among many groups and Dunnett's T test for comparison between two groups.

[2] = tested on: transgenic neutrophil fluorescent zebra fish Crohn's disease model; conditions: 10 μM in fish farm water
[3] = tested on: zebra fish Crohn's disease model; assay: Histopathology of intestinal tissue in zebra fish Crohn's disease model (H&E); assay type: in vivo; conditions: 10 μM in fish farm water

## C[C@]12C=CC(=O)C=C1CC[C@@H]1[C@@H]2[C@@H](O)C[C@@]2(C)[C@H]1CC[C@]2(O)C(=O)CO [prednisolone]
[1]
  Intestinal area (Mean ± SD): 48646 ± 4685
  Intestinal area, Ratio of blank control group (Mean ± SE): 1.31 ± 0.04
  Intestinal diameter (Mean ± SD): 137 ± 11
  Intestinal diameter, Ratio of blank control group (Mean ± SE): 1.02 ± 0.03
[1]; from intestinal area
  Therapeutic ratio (%) (Mean ± SE): 74±3.40%
[2]
  Inflammation regression ratio (%) (Mean ± SE): 81±2.48%
  Number of neutrophil (Mean ± SD): 20 ± 1
  Number of neutrophil, Ratio of the blank control group (Mean ± SE): 1.22 ± 0.03
[3]
  Intestinal histopathology (H&E): the intestinal mucosal histopathology was improved obviously
